Test results published in publication PMC10839085, “Screening and evaluation of metabolites binding PRAS40 from Erxian decoction used to treat spinal cord injury” (Frontiers in Pharmacology, 2024).
pKd: −log10 of the molar value. Read-outs that look alike come from different tables or passages of the source.

Experiments:
PRAS40 [1] = biological target: T1, PRAS40 (Homo sapiens, UniProt Q96B36); assay: ligand fishing from Erxian decoction with immobilized PRAS40, LC-MS identification; type: binding; settings: PBS-Tween, pH 7.4, eluted from Ni-NTA beads, identified from extract by MS only
T1 construct: gene AKT1S1; His-tagged, purchased from Genscript (Nanjing); UniProt Q96B36 (human) given only for the docking receptor

PRAS40 [2] = biological target: T1, PRAS40; assay: isothermal titration calorimetry; type: binding; settings: for Kd: read-out: Ka (M^-1) (converted); for pKd: read-out: Kd
Excerpt: isothermal titration calorimetry on PRAS40

Row | Kd (PRAS40 [2]) [µM] | pKd (PRAS40 [2]) | Compound | ligand fishing from Erxian decoction with immobilized PRAS40, LC-MS identificati (PRAS40 [1]) | ligand fishing from Erxian decoction with immobilized PRAS40, LC-MS identificati (PRAS40 [1]; named as PAINS by the paper)
1 | – | – | O=[N+]([O-])c1ccc(O)cc1 [4-nitrophenol] | The immobilized PRAS40 isolated indole, 4-nitrophenol, terephthalic acid | –
2 | 2.62 | 5.58 | c1ccc2[nH]ccc2c1 [indole] | – | –
3 | 0.352 | 6.45 | COc1cc2c(cc1OC)-c1cc3ccc(OC)c(OC)c3c[n+]1CC2 [palmatine] | – | –
4 | – | – | COc1cc(/C=C/C=O)cc(OC)c1O [sinapinaldehyde] | – | palmatine, sinapinaldehyde, and 3-chloroaniline as the potential ligands binding to PRAS40
5 | – | – | O=C(O)c1ccc(C(=O)O)cc1 [terephthalic acid] | The immobilized PRAS40 isolated indole, 4-nitrophenol, terephthalic acid | –
